Experimental data reported in patent EP4748847A1, “PEPTIDE COMPLEX HAVING VEGFR -2 AGONIST ACTIVITY” (Peptidream Inc, priority 2023, dated 2025).
*1 amine or outer side, *2 acyl side, *3 side chain or, on linkers, in order; H or OH if unused. Where a SMILES comes first, the peptide text is derived from it. Bridges are numbered along the chain shown (N, C = ends). Roman numbers before positions name the chains, in order. [ ]: non-standard residue; d: D form. CO(CH2)2(OCH2CH2)17CO = O=C(CCOCCOCCOCCOCCOCCOCCOCCOCCOCCOCCOCCOCCOCCOCCOCCOCCOCCC(=O)[*:2])[*:1]; Phe(4-guanidino) = N=C(N)Nc1ccc(C[C@H](N)C(=O)O)cc1; Trp(7-aza) = N[C@@H](Cc1c[nH]c2ncccc12)C(=O)O; hTyr = N[C@@H](CCc1ccc(O)cc1)C(=O)O; h4Pal = N[C@@H](CCc1ccncc1)C(=O)O; Chg = N[C@H](C(=O)O)C1CCCCC1; Tle = CC(C)(C)[C@H](N)C(=O)O

Target: T1, VEGFR-2 (Homo sapiens, UniProt P35968)
T1 construct: endogenous in cells; host or cells: HUVEC
Assay: pVEGFR AlphaLISA assay (VEGFR-2 phosphorylation, p-Tyr1175) in HUVECs
Type: cell-based
Conditions: 10 minutes stimulation, % activity, maximum VEGF165a signal = 100%, unstimulated = 0%
Procedure: To evaluate the VEGFR-2 activation ability of the VEGFR-2 agonist peptides of the present invention, VEGFR-2 phosphorylation was verified. HUVECs were cultured using EGM™ -2 Endothelial Cell Growth Medium-2 BulletKit (LONZA; CC-3162). After detaching cells using Tryple (Thermo Fisher Scientific), they were seeded into a 96-well PDL-coated plate (Corning: 354461) at a density of 24,000 cells per well and cultured for 2 days. For starvation, the medium was replaced with EBM-2 medium (LONZA) containing 0.5% FBS (Thermo Fisher Scientific), 0.1% heparin (included with the above LONZA CC-3162), and 0.1% gentamicin (Nacalai), and the cells were cultured for 18 hours. Subsequently, Recombinant Human VEGF165a Protein (R&D Systems) or the peptide was added, and the cells were cultured in a CO2 incubator at 37°C. After 10 minutes of stimulation, cells were lysed using the Lysis Buffer included in the AlphaLISA SureFire Ultra VEGFR-2 (p-Tyr1175) Assay Kit (PerkinElmer) to lyse the cells. The procedure was performed according to the kit protocol, and signal detection was performed using a SpectraMax Paradigm multimode microplate reader (Molecular Devices). The obtained signals were analyzed using GraphPad Prism, and % activity was calculated with the maximum signal induced by VEGF165a set as 100% and the unstimulated control as 0%.
The VEGF165a concentration was evaluated at five points (0.08, 0.31, 1.25, 5, 20 nM) using 1/4-fold dilutions starting from 20 nM to determine the maximum value (100%). Peptide concentrations tested were: 3.2, 16, 80 nM for dimer structure number 1; 10, 100 nM for dimer structures numbers 2-41; and 1.25, 5, 20 nM for dimer structures numbers 42-57. […]
Peptides showing 50% or more activity at 10 nM were designated 2-A, those showing 50% or more activity at 100 nM were designated 2-B, and those showing 1% or more but less than 50% activity at 100 nM were designated 2-C.
Peptides showing 50% or more activity at 1.25 nM were designated 3-A, those showing 50% or more activity at 5 nM were designated 3-B, those showing 50% or more activity at 20 nM were designated 3-C, and those showing 1% or more but less than 50% activity at 20 nM were designated 3-D.

[1] = peptide 10, 100 nM (dimer structures 2-41)
[2] = peptide 1.25, 5, 20 nM (dimer structures 42-57)

T1 sequence (P35968 20-1356): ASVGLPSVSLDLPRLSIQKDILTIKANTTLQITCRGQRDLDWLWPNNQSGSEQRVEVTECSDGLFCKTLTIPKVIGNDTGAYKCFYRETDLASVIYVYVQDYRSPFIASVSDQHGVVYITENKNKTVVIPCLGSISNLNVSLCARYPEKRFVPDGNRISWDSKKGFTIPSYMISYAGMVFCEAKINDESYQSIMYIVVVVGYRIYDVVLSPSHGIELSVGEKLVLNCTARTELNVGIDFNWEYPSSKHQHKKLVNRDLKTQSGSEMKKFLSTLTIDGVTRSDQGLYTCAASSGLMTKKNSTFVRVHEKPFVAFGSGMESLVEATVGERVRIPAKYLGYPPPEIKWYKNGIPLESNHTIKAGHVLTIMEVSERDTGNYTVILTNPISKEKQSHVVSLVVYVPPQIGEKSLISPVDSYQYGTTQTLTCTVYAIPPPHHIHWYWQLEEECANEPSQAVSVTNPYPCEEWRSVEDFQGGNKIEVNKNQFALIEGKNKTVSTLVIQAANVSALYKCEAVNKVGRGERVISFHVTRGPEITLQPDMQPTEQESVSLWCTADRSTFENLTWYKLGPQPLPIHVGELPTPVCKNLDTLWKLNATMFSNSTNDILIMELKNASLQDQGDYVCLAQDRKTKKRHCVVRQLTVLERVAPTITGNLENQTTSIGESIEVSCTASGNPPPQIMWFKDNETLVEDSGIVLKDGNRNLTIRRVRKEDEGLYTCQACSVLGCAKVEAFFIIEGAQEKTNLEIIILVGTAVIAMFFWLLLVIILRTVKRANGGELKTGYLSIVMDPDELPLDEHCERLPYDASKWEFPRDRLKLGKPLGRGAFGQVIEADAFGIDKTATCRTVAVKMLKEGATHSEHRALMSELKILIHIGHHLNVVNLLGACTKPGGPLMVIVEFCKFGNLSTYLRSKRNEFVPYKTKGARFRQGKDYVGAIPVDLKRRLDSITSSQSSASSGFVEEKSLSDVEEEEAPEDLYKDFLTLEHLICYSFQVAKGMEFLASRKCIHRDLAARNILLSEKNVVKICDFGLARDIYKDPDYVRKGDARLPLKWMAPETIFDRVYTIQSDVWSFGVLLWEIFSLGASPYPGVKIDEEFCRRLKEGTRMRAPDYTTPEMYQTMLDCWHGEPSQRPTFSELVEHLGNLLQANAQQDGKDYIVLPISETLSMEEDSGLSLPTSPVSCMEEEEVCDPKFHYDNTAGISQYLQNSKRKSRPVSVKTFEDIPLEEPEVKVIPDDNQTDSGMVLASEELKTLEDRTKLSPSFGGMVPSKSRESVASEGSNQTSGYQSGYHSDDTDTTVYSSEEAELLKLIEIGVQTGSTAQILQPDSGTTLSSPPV

| SMILES | pVEGFR2 Assay Results [1] | pVEGFR2 Assay Results [2] |
| --- | --- | --- |
| CC(C)C[C@@H]1NC(=O)[C@H](CC(=O)O)NC(=O)[C@H](CC(=O)O)NC(=O)[C@H](CCCCNC(=O)CCOCCOCCOCCOCCOCCOCCOCCOCCOCCOCCOCCOCCOCCOCCOCCOCCOCCC(=O)NCCCC[C@@H]2NC(=O)[C@H](C(C)C)NC(=O)[C@H](CC(=O)O)NC(=O)[C@H](C3CCCCC3)NC(=O)[C@H](Cc3c[nH]c4ccccc34)NC(=O)[C@H](Cc3c[nH]c4ccccc34)NC(=O)CSC[C@@H](C(=O)NCC(N)=O)NC(=O)[C@H](CC(=O)O)NC(=O)[C@H](CCc3ccc(O)cc3)NC(=O)[C@H](Cc3ccccc3)NC(=O)[C@H](Cc3ccc(O)cc3)NC(=O)[C@H](CC(C)C)NC(=O)[C@H](CC(=O)O)NC(=O)[C@H](CC(=O)O)NC2=O)NC(=O)[C@H](C(C)C)NC(=O)[C@H](CC(=O)O)NC(=O)[C@H](C2CCCCC2)NC(=O)[C@H](Cc2c[nH]c3ccccc23)NC(=O)[C@H](Cc2c[nH]c3ccccc23)NC(=O)CSC[C@@H](C(=O)NCC(N)=O)NC(=O)[C@H](CC(=O)O)NC(=O)[C@H](CCc2ccc(O)cc2)NC(=O)[C@H](Cc2ccccc2)NC(=O)[C@H](Cc2ccc(O)cc2)NC1=O [compound 25] (I: {CH2CO}-WW[Chg]DVKDDLYF[hTyr]DCG-NH2 / II: {CH2CO}-WW[Chg]DVKDDLYF[hTyr]DCG-NH2; linker I:6-II:6 via CO(CH2)2(OCH2CH2)17CO; thioether I:N-I:14, II:N-II:14) | 2-C (1% or more but less than 50% activity at 100 nM) | – |
| CC(C)C[C@@H]1NC(=O)[C@H](CC(=O)O)NC(=O)[C@H](CC(=O)O)NC(=O)[C@H](CCCCNC(=O)CCOCCOCCOCCOCCOCCOCCOCCOCCOCCOCCOCCOCCOCCOCCOCCOCCOCCC(=O)NCCCC[C@@H]2NC(=O)[C@H](C(C)C)NC(=O)[C@H](CC(=O)O)NC(=O)[C@H](C(C)(C)C)NC(=O)[C@H](Cc3c[nH]c4ccccc34)NC(=O)[C@H](Cc3c[nH]c4ccccc34)NC(=O)CSC[C@@H](C(=O)NCC(N)=O)NC(=O)[C@H](CC(=O)O)NC(=O)[C@H](C(C)C)NC(=O)[C@H](Cc3ccc(NC(=N)N)cc3)NC(=O)[C@H](Cc3ccc(O)cc3)NC(=O)[C@H](CC(C)C)NC(=O)[C@H](CC(=O)O)NC(=O)[C@H](CC(=O)O)NC2=O)NC(=O)[C@H](C(C)C)NC(=O)[C@H](CC(=O)O)NC(=O)[C@H](C(C)(C)C)NC(=O)[C@H](Cc2c[nH]c3ccccc23)NC(=O)[C@H](Cc2c[nH]c3ccccc23)NC(=O)CSC[C@@H](C(=O)NCC(N)=O)NC(=O)[C@H](CC(=O)O)NC(=O)[C@H](C(C)C)NC(=O)[C@H](Cc2ccc(NC(=N)N)cc2)NC(=O)[C@H](Cc2ccc(O)cc2)NC1=O [compound 43] (I: {CH2CO}-WW[Tle]DVKDDLY[Phe(4-guanidino)]VDCG-NH2 / II: {CH2CO}-WW[Tle]DVKDDLY[Phe(4-guanidino)]VDCG-NH2; linker I:6-II:6 via CO(CH2)2(OCH2CH2)17CO; thioether I:N-I:14, II:N-II:14) | – | 3-C (50% or more activity at 20 nM) |
| CC(C)C[C@@H]1NC(=O)[C@H](CC(=O)O)NC(=O)[C@H](CC(=O)O)NC(=O)[C@H](CCCCNC(=O)CCOCCOCCOCCOCCOCCOCCOCCOCCOCCOCCOCCOCCOCCOCCOCCOCCOCCC(=O)NCCCC[C@@H]2NC(=O)[C@H](C(C)C)NC(=O)[C@H](CC(=O)O)NC(=O)[C@H](C(C)(C)C)NC(=O)[C@H](Cc3c[nH]c4ccccc34)NC(=O)[C@H](Cc3c[nH]c4ccccc34)NC(=O)CSC[C@@H](C(=O)NCC(N)=O)NC(=O)[C@H](CC(=O)O)NC(=O)[C@H](CCc3ccc(O)cc3)NC(=O)[C@H](Cc3ccc(NC(=N)N)cc3)NC(=O)[C@H](Cc3ccc(O)cc3)NC(=O)[C@H](CC(C)C)NC(=O)[C@H](CC(=O)O)NC(=O)[C@H](CC(=O)O)NC2=O)NC(=O)[C@H](C(C)C)NC(=O)[C@H](CC(=O)O)NC(=O)[C@H](C(C)(C)C)NC(=O)[C@H](Cc2c[nH]c3ccccc23)NC(=O)[C@H](Cc2c[nH]c3ccccc23)NC(=O)CSC[C@@H](C(=O)NCC(N)=O)NC(=O)[C@H](CC(=O)O)NC(=O)[C@H](CCc2ccc(O)cc2)NC(=O)[C@H](Cc2ccc(NC(=N)N)cc2)NC(=O)[C@H](Cc2ccc(O)cc2)NC1=O [compound 45] (I: {CH2CO}-WW[Tle]DVKDDLY[Phe(4-guanidino)][hTyr]DCG-NH2 / II: {CH2CO}-WW[Tle]DVKDDLY[Phe(4-guanidino)][hTyr]DCG-NH2; linker I:6-II:6 via CO(CH2)2(OCH2CH2)17CO; thioether I:N-I:14, II:N-II:14) | – | 3-C (50% or more activity at 20 nM) |

Next, values leading:

| pVEGFR2 Assay Results [1] | pVEGFR2 Assay Results [2] | SMILES |
| --- | --- | --- |
| 2-B (50% or more activity at 100 nM) | – | CC(C)C[C@@H]1NC(=O)[C@H](CC(=O)O)NC(=O)[C@H](CC(=O)O)NC(=O)[C@H](CCCCNC(=O)CCOCCOCCOCCOCCOCCOCCOCCOCCOCCOCCOCCOCCOCCOCCOCCOCCOCCC(=O)NCCCC[C@@H]2NC(=O)[C@H](C(C)C)NC(=O)[C@H](CCC(N)=O)NC(=O)[C@H](C(C)(C)C)NC(=O)[C@H](Cc3c[nH]c4ccccc34)NC(=O)[C@H](Cc3c[nH]c4ccccc34)NC(=O)CSC[C@@H](C(=O)NCC(N)=O)NC(=O)[C@H](CC(=O)O)NC(=O)[C@H](CCc3ccc(O)cc3)NC(=O)[C@H](Cc3ccccc3)NC(=O)[C@H](Cc3ccc(O)cc3)NC(=O)[C@H](CC(C)C)NC(=O)[C@H](CC(=O)O)NC(=O)[C@H](CC(=O)O)NC2=O)NC(=O)[C@H](C(C)C)NC(=O)[C@H](CCC(N)=O)NC(=O)[C@H](C(C)(C)C)NC(=O)[C@H](Cc2c[nH]c3ccccc23)NC(=O)[C@H](Cc2c[nH]c3ccccc23)NC(=O)CSC[C@@H](C(=O)NCC(N)=O)NC(=O)[C@H](CC(=O)O)NC(=O)[C@H](CCc2ccc(O)cc2)NC(=O)[C@H](Cc2ccccc2)NC(=O)[C@H](Cc2ccc(O)cc2)NC1=O [compound 26] (I: {CH2CO}-WW[Tle]QVKDDLYF[hTyr]DCG-NH2 / II: {CH2CO}-WW[Tle]QVKDDLYF[hTyr]DCG-NH2; linker I:6-II:6 via CO(CH2)2(OCH2CH2)17CO; thioether I:N-I:14, II:N-II:14) |
| 2-A (50% or more activity at 10 nM) | – | CC(C)C[C@@H]1NC(=O)[C@H](CC(=O)O)NC(=O)[C@H](CC(=O)O)NC(=O)[C@H](CCCCNC(=O)CCOCCOCCOCCOCCOCCOCCOCCOCCOCCOCCOCCOCCOCCOCCOCCOCCOCCC(=O)NCCCC[C@@H]2NC(=O)[C@H](C(C)C)NC(=O)[C@H](CC(=O)O)NC(=O)[C@H](C(C)(C)C)NC(=O)[C@H](Cc3c[nH]c4ccccc34)NC(=O)[C@H](Cc3c[nH]c4ccccc34)NC(=O)CSC[C@@H](C(=O)NCC(N)=O)NC(=O)[C@H](CC(=O)O)NC(=O)[C@H](CCc3ccncc3)NC(=O)[C@H](Cc3ccccc3)NC(=O)[C@H](Cc3ccc(O)cc3)NC(=O)[C@H](CC(C)C)NC(=O)[C@H](CC(=O)O)NC(=O)[C@H](CC(=O)O)NC2=O)NC(=O)[C@H](C(C)C)NC(=O)[C@H](CC(=O)O)NC(=O)[C@H](C(C)(C)C)NC(=O)[C@H](Cc2c[nH]c3ccccc23)NC(=O)[C@H](Cc2c[nH]c3ccccc23)NC(=O)CSC[C@@H](C(=O)NCC(N)=O)NC(=O)[C@H](CC(=O)O)NC(=O)[C@H](CCc2ccncc2)NC(=O)[C@H](Cc2ccccc2)NC(=O)[C@H](Cc2ccc(O)cc2)NC1=O [compound 32] (I: {CH2CO}-WW[Tle]DVKDDLYF[h4Pal]DCG-NH2 / II: {CH2CO}-WW[Tle]DVKDDLYF[h4Pal]DCG-NH2; linker I:6-II:6 via CO(CH2)2(OCH2CH2)17CO; thioether I:N-I:14, II:N-II:14) |
| – | 3-C (50% or more activity at 20 nM) | CC(C)C[C@@H]1NC(=O)[C@H](CC(=O)O)NC(=O)[C@H](CC(=O)O)NC(=O)[C@H](CCCCNC(=O)CCOCCOCCOCCOCCOCCOCCOCCOCCOCCOCCOCCOCCOCCOCCOCCOCCOCCC(=O)NCCCC[C@@H]2NC(=O)[C@H](C(C)C)NC(=O)[C@H](CC(=O)O)NC(=O)[C@H](C(C)(C)C)NC(=O)[C@H](Cc3c[nH]c4ccccc34)NC(=O)[C@H](Cc3c[nH]c4ncccc34)NC(=O)CSC[C@@H](C(=O)NCC(N)=O)NC(=O)[C@H](CC(=O)O)NC(=O)[C@H](CCc3ccc(O)cc3)NC(=O)[C@H](Cc3ccccc3)NC(=O)[C@H](Cc3ccc(O)cc3)NC(=O)[C@H](CC(C)C)NC(=O)[C@H](CC(=O)O)NC(=O)[C@H](CC(=O)O)NC2=O)NC(=O)[C@H](C(C)C)NC(=O)[C@H](CC(=O)O)NC(=O)[C@H](C(C)(C)C)NC(=O)[C@H](Cc2c[nH]c3ccccc23)NC(=O)[C@H](Cc2c[nH]c3ncccc23)NC(=O)CSC[C@@H](C(=O)NCC(N)=O)NC(=O)[C@H](CC(=O)O)NC(=O)[C@H](CCc2ccc(O)cc2)NC(=O)[C@H](Cc2ccccc2)NC(=O)[C@H](Cc2ccc(O)cc2)NC1=O [compound 46] (I: {CH2CO}-[Trp(7-aza)]W[Tle]DVKDDLYF[hTyr]DCG-NH2 / II: {CH2CO}-[Trp(7-aza)]W[Tle]DVKDDLYF[hTyr]DCG-NH2; linker I:6-II:6 via CO(CH2)2(OCH2CH2)17CO; thioether I:N-I:14, II:N-II:14) |
